From article PMC12006171, “Marsupial cathelicidins: characterization, antimicrobial activity and evolution in this unique mammalian lineage” (Frontiers in Immunology, 2025)
In brackets after ≈: the same amount, converted by molar mass. Read-outs that look alike come from different tables or passages of the source. Where a SMILES comes first, the peptide text is derived from it.

How the values were obtained:
Format in all cases: cell-based
[1] = system: Staphylococcus aureus clinical isolate - animal; assay: microbe, parasite or virus in culture; conditions: clinical isolate - animal
Outline: (§1)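 Each isolate was exposed to twofold peptide dilutions (final 64-0.125μg/mL) in Mueller Hinton broth, optionally supplemented with calcium and magnesium or 10% lysed horse blood. The MIC was taken as the lowest concentration lacking visible growth after 20–24 hours at 35°C.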

[2] = system: Pseudomonas aeruginosa clinical isolate - animal; assay: microbe, parasite or virus in culture; conditions: clinical isolate - animal
Outline: as §1

[3] = system: Escherichia coli ATCC 25922; assay: microbe, parasite or virus in culture; conditions: ATCC 25922
Outline: as §1

[4] = system: Pseudomonas aeruginosa ATCC 27853; assay: microbe, parasite or virus in culture; conditions: ATCC 27853; read-out: MIC P. aeruginosa ATCC
Outline: as §1

[5] = system: Staphylococcus aureus ATCC 29213; assay: microbe, parasite or virus in culture; conditions: ATCC 29213
Outline: as §1

[6] = system: Escherichia coli clinical isolate - animal; assay: microbe, parasite or virus in culture; conditions: clinical isolate - animal
Outline: as §1

[7] = system: Streptococcus agalactiae ATCC 12386; assay: microbe, parasite or virus in culture; conditions: ATCC 12386; read-out: MIC S. agalactiae ATCC
Outline: (§2)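 MIC defined as lowest peptide level preventing visible growth after 20–24 h at 35°C. Candida tested in RPMI-1640 MOPS; bacteria in Mueller Hinton broth, optionally with 10% lysed horse blood and/or divalent cations. Final peptide range 64-0.125 μg/mL, starting inoculum 5 x 10^5 CFU/mL, per CLSI M07-A/M26A.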

[8] = system: Candida parapsilosis ATCC 22019; assay: microbe, parasite or virus in culture; conditions: ATCC 22019
Outline: as §2

Candida krusei ATCC 6258 = assay: microbe, parasite or virus in culture; conditions: ATCC 6258
Outline: as §2

[9] = system: Candida albicans Clinical isolate - human; assay: microbe, parasite or virus in culture; conditions: Clinical isolate - human
Outline: as §2

[10] = system: Streptococcus pneumoniae ATCC 49619; assay: microbe, parasite or virus in culture; conditions: ATCC 49619; read-out: MIC S. pneumoniae ATCC
Outline: as §2

[11] = system: Streptococcus agalactiae Clinical isolate - animal; assay: microbe, parasite or virus in culture; conditions: clinical isolate - animal
Outline: as §2

[12] = system: Staphylococcus aureus clinical isolate – animal, methicillin-resistant (MRSA); conditions: clinical isolate – animal, methicillin-resistant
Outline: as §2

[13] = system: Staphylococcus aureus clinical isolate – animal, penicillin-resistant (PRSA); conditions: clinical isolate – animal, penicillin-resistant (PRSA)
Outline: as §2

[14] = system: six bacteria (S. aureus, E. coli, P. aeruginosa; ATCC and clinical isolate); conditions: for Antibacterial (MIC <64ug/mL): synthesized mature peptide
Outline: as §1

[15] = system: three fungi (Candida krusei, Candida parapsilosis, Candida albicans); assay: Antifungal screening, summary over the panel of fungi (broth microdilution)
Protocol: Antimicrobial testing of 78 cathelicidin MPs was performed in two phases as outlined in Figure 1 . In phase I, 40 peptides (27 extant and 13 ancestral) were selected for testing based on rank (outlined above) and similarity to published marsupial cathelicidins with known antimicrobial activity ([33], [41]–[43]). These peptides were tested against nine bacteria (Staphylococcus aureus ATCC 29213 and clinical isolate, Escherichia coli ATCC 25922 and clinical isolate, Pseudomonas aeruginosa ATCC 27853 and clinical isolate, Streptococcus agalactiae ATCC 12386 and clinical isolate, Streptococcus pneumoniae ATCC 49619) and three fungi (Candida krusei ATCC 6258, Candida parapsilosis ATCC 22019, and Candida albicans clinical isolate). Details regarding these strains are available in Supplementary Table 4 . The antimicrobial activity of cathelicidins was determined as the minimum inhibitory concentration (MIC), which was the lowest concentration of cathelicidin that prevented visible bacterial or fungal growth, relative to the negative control. […] Minimum bactericidal concentration (MBC) and/or minimum fungicidal concentration (MFC) was conducted to determine microbicidal versus static action. Activity against S. aureus ATCC, E. coli ATCC, and Pseudomonas aeruginosa ATCC 27853 was examined in the presence of divalent cations to determine the impact of inhibitors.
Antimicrobial activity was determined using a broth microdilution susceptibility assay in 96 well polypropylene plates according to Clinical Laboratory Standards Institute guidelines M07-A and M26A as described previously ([33], [42], [43]). The bacterial and fungal isolates from humans and animals used in this study are outlined in Supplementary Table 4 . Only yeasts were included in the panel of fungi as they have been used in the susceptibility testing of eutherian ([3], [81]–[83]) and other marsupial cathelicidins previously ([33], [42], [43]). Cathelicidin mature peptides were solubilized in DMSO and serially diluted in duplicate from 128-0.25μg/mL in a final volume of 100µL. For bacteria, cathelicidins were diluted in Mueller Hinton Broth (MHB) with or without 10% lysed horse blood, and with (MH II B) or without (MHB) calcium and magnesium cations. For fungi, cathelicidins were diluted in Roswell Park Memorial Institute medium (RPMI)-1640 MOPS. Ampicillin or tetracycline were included as a positive control for Gram-positive and -negative bacteria respectively, while amphotericin B was used for fungi. A media-only negative control and growth control (no cathelicidin) were also included on each plate. Bacteria were sub-cultured on Muller Hinton agar (MHA) or sheep blood agar (BA), and fungi on Sabouraud dextrose agar (SAB), 20–24 hours prior to the test. Colonies were suspended in saline, the concentration adjusted to a 0.5 McFarland standard, and then diluted in media to a concentration of 1.0 x 10^6 cells/mL. Then, 100μL was added to each well of the cathelicidin dilution plate, giving a final inoculum density of 5 x 10^5 CFU/mL and cathelicidin concentration of 64-0.125μg/mL. Colony counts were performed on MHA/BA/SAB to confirm inoculum density. All plates were incubated at 35°C for 20–24 hours, depending on the strain.
Colonies were counted and compared to the colony count of the starting inoculum.

[16] = read-out: MIC in the presence of cations E. coli ATCC
[17] = broth microdilution screening, phase I, Y/N summary over the fungi tested, synthesized mature peptide
[18] = broth microdilution screening, phase I or II, Y/N summary over the bacteria tested

CC[C@H](C)[C@H](NC(=O)[C@H](CCCNC(=N)N)NC(=O)[C@@H](NC(=O)[C@H](CCCNC(=N)N)NC(=O)[C@@H](N)CCCCN)[C@@H](C)CC)C(=O)N[C@@H](CC(C)C)C(=O)NCC(=O)N[C@@H](CCCNC(=N)N)C(=O)N[C@@H](CC(C)C)C(=O)N[C@@H](Cc1c[nH]c2ccccc12)C(=O)N[C@@H](CC(=O)O)C(=O)NCC(=O)N[C@@H](CC(C)C)C(=O)N[C@@H](CCCNC(=N)N)C(=O)N[C@@H](CC(N)=O)C(=O)N[C@@H](CC(C)C)C(=O)NCC(=O)N[C@@H](CC(N)=O)C(=O)N[C@@H](CCCNC(=N)N)C(=O)N[C@H](C(=O)N[C@@H](CCCNC(=N)N)C(=O)N[C@@H](CC(N)=O)C(=O)N[C@@H](CCCNC(=N)N)C(=O)N[C@H](C(=O)N[C@@H](CCCNC(=N)N)C(=O)N[C@@H](CC(=O)O)C(=O)N[C@@H](Cc1ccccc1)C(=O)N[C@@H](Cc1ccccc1)C(=O)N[C@@H](CO)C(=O)O)[C@@H](C)CC)[C@@H](C)CC [MyfaCath5] (H-KRIRILGRLWDGLRNLGNRIRNRIRDFFS-OH)
MBC S. aureus [1]: 8.8 µM (≈ 31.8 µg/mL)
MIC ([1]; read-out: MIC S. aureus): 4.4 µM (≈ 15.9 µg/mL)
MIC ([1]; read-out: MIC in the presence of cations S. aureus): 4.4 µM
MIC ([2]; read-out: MIC P. aeruginosa): >17.7 µM
MBC E. coli ATCC [3]: 17.7 µM (≈ 63.9 µg/mL)
MIC ([3]; read-out: MIC E. coli ATCC): 8.8 µM (≈ 31.8 µg/mL)
MIC [3, 16]: 8.8 µM
MIC [4]: >17.7 µM
MBC S. aureus ATCC [5]: 17.7 µM (≈ 63.9 µg/mL)
MIC ([5]; read-out: MIC S. aureus ATCC): 8.8 µM (≈ 31.8 µg/mL)
MIC ([5]; read-out: MIC in the presence of cations S. aureus ATCC): 4.4 µM
MBC E. coli [6]: 8.8 (8.8)^8.8 µM
MIC E. coli [6]: 8.8 (8.8)^8.8 µM
MIC in the presence of cations E. coli [6]: 8.8 (8.8)^8.8 µM
MIC [7]: >17.7 µM
MFC C. parapsilosis ATCC [8]: 17.7 µM (≈ 63.9 µg/mL)
MIC C. parapsilosis ATCC [8]: 17.7 µM (≈ 63.9 µg/mL)
MFC C. krusei ATCC (Candida krusei ATCC 6258): 4.4 µM (≈ 15.9 µg/mL)
MIC C. krusei ATCC (Candida krusei ATCC 6258): 4.4 µM (≈ 15.9 µg/mL)
MIC ([9]; read-out: MIC C. albicans): >17.7 µM
MIC [10]: >17.7 µM
MIC ([11]; read-out: MIC S. agalactiae): >17.7 µM
MBC MRSA [12]: 8.8 µM (≈ 31.8 µg/mL)
MIC MRSA [12]: 8.8 µM (≈ 31.8 µg/mL)
MBC PRSA [13]: 2.2 µM (≈ 7.95 µg/mL)
MIC PRSA [13]: 2.2 µM (≈ 7.95 µg/mL)

CC[C@H](C)[C@H](NC(=O)[C@H](CCCNC(=N)N)NC(=O)[C@H](CC(=O)O)NC(=O)[C@H](Cc1c[nH]c2ccccc12)NC(=O)[C@@H](NC(=O)[C@H](CCCNC(=N)N)NC(=O)[C@H](CCCNC(=N)N)NC(=O)[C@@H](NC(=O)[C@H](CC(C)C)NC(=O)[C@H](CCCNC(=N)N)NC(=O)CNC(=O)[C@H](CC(C)C)NC(=O)[C@H](CCCNC(=N)N)NC(=O)CNC(=O)[C@H](CCCNC(=N)N)NC(=O)[C@@H](N)CCCCN)[C@@H](C)CC)[C@@H](C)CC)C(=O)N[C@@H](CCCNC(=N)N)C(=O)NCC(=O)NCC(=O)O [MyfaCath7] (H-KRGRLGRLIRRIWDRIRGG-OH)
MBC S. aureus [1]: 3.4 (3.4)^3.4 µM
MIC S. aureus [1]: 3.4 (3.4)^3.4 µM
MIC in the presence of cations S. aureus [1]: 3.4 (3.4)^3.4 µM
MBC P. aeruginosa [2]: > 27.4 µM
MIC ([2]; read-out: MIC P. aeruginosa): 13.7 µM (≈ 32 µg/mL)
MIC ([2]; read-out: MIC in the presence of cations P. aeruginosa): 27.4 µM
MBC E. coli ATCC [3]: 1.7 µM (≈ 3.97 µg/mL)
MIC ([3]; read-out: MIC E. coli ATCC): 1.7 µM (≈ 3.97 µg/mL)
MIC [3, 16]: 3.4 µM
MIC [4]: >27.4 µM
MBC S. aureus ATCC [5]: 3.4 (3.4)^3.4 µM
MIC S. aureus ATCC [5]: 3.4 (3.4)^3.4 µM
MIC in the presence of cations S. aureus ATCC [5]: 3.4 (3.4)^3.4 µM
MBC E. coli [6]: 1.7 (1.7)^1.7 µM
MIC E. coli [6]: 1.7 (1.7)^1.7 µM
MIC in the presence of cations E. coli [6]: 1.7 (1.7)^1.7 µM
MIC [7]: >27.4 µM
MFC C. parapsilosis ATCC [8]: 13.7 µM (≈ 32 µg/mL)
MIC C. parapsilosis ATCC [8]: 13.7 µM (≈ 32 µg/mL)
MFC C. krusei ATCC (Candida krusei ATCC 6258): 6.8 µM (≈ 15.9 µg/mL)
MIC C. krusei ATCC (Candida krusei ATCC 6258): 6.8 µM (≈ 15.9 µg/mL)
MFC C. albicans [9]: 27.4 µM (≈ 64 µg/mL)
MIC C. albicans [9]: 27.4 µM (≈ 64 µg/mL)
MIC [10]: >27.4 µM
MBC S. agalactiae [11]: 13.7 µM (≈ 32 µg/mL)
MIC S. agalactiae [11]: 13.7 µM (≈ 32 µg/mL)
MBC MRSA [12]: 3.4 µM (≈ 7.94 µg/mL)
MIC MRSA [12]: 3.4 µM (≈ 7.94 µg/mL)
MBC PRSA [13]: 1.7 µM (≈ 3.97 µg/mL)
MIC PRSA [13]: 1.7 µM (≈ 3.97 µg/mL)
MIC against at least one strain [14]: 4 µg/mL (≈ 1.71 µM)

KRFGFRWFIRTLLRFRGEKVKTRFIFAIEKLIDT [MAP12, marsupial ancestral peptide, predicted by ANCESCON and GASP, synthesized]
Antifungal (MIC <64ug/mL) ([15]; synthesized mature peptide, antimicrobial screening Phase I, Y/N summary over fungi tested, broth microdilution): N (Antifungal (MIC <64ug/mL))
Antibacterial (MIC <64ug/mL) ([14]; antimicrobial screening Phase I, Y/N summary over bacteria tested, broth microdilution): N (Antibacterial (MIC <64ug/mL))

KRGLWESLKRKATKLGDDIRNTLRNFKIKVPVPRQWPIRV [MaruCath4p]
Antifungal (MIC <64ug/mL) [15, 17]: N (Antifungal (MIC <64ug/mL))
Antibacterial (MIC <64ug/mL) [14, 18]: Y (Antibacterial (MIC <64ug/mL))

KVKRGLWEDLKRKATKFGDDIRNTLRNVKIKFPVPHLG [MagiCath9]
Antifungal (MIC <64ug/mL) [15, 17]: N (Antifungal (MIC <64ug/mL))
Antibacterial (MIC <64ug/mL) [14, 18]: N (Antibacterial (MIC <64ug/mL))

PELLRSRRSPLPRRKKGSKKNSYKTGGYSVIALGKSNVHKAPYMEAL [TrvuCath1]
Antifungal (MIC <64ug/mL) [15, 17]: N (Antifungal (MIC <64ug/mL))
Antibacterial (MIC <64ug/mL) [14, 18]: N (Antibacterial (MIC <64ug/mL))

SRGLRKKLKKLGKSIKKRLKNIKIGYSIPFPG [PspeCath1p]
Antifungal (MIC <64ug/mL) ([15]; Y/N summary over the fungi screened, broth microdilution, NT = not tested): Y (Antifungal (MIC <64ug/mL))
